Columns and labels:
perfused rat pancreas = conditions: cited from earlier work
turkey P2Y1 = target: T1, turkey P2Y1 (Meleagris gallopavo, UniProt P49652); experiment: Intracellular calcium measurement ([Ca2+]i, fura-2) in 1321N1 astrocytoma cells; type: cell-based; conditions: for activities at the P2YRs tested: P2Y1, P2Y2, P2Y4 and P2Y6 tested; for EC50: human 1321N1 astrocytoma cells expressing turkey P2Y1, read-out: Compound-induced activation of [Ca2+] EC50, P2Y1
T1 construct: expressed in transfected cells
Method: (§1) Human 1321N1 astrocytoma cells stably expressing the turkey P2Y1, human P2Y2, human P2Y4 or rat P2Y6 were grown in Dulbecco's modified Eagle's medium containing 5% (v/v) fetal bovine serum, 100 units/ml penicillin, 100 μg/ml streptomycin and 500 μg/ml Geneticin (G-418, Life Technologies, Inc). Changes in the intracellular free calcium concentration, [Ca^2+]i were detected by dual-excitation spectrofluorometric analysis of cell suspensions loaded with fura-2, as previously described (Garrad et al., 1998; Grynkiewicz et al., 1985). Cells were assayed in 10 mM Hepes-buffered saline (pH 7.4) containing 1 mM CaCl2 and 1 mM MgCl2. The cells were pelleted in a microfuge and resuspended in 2 ml of buffer. Concentration-response data were analyzed with the Prism curve fitting program (GraphPAD Software, San Diego, Calif.). Three experiments were conducted on separate days for each P2Y receptor subtype.
(§2) The activities of compounds 2, 4B, 17, 18, 19A, 21 (isomers A and B) were examined at the G protein-coupled P2YRs, P2Y1, P2Y2, P2Y4 and P2Y6 expressed in human 1321N1 astrocytoma cells, based on intracellular calcium measurements, as described in Experimental above. In particular, the activity of compound 2, 4B and 19 was examined at P2Y1R, P2Y2R, P2Y4R and P2Y6R, and the activity of compounds 17, 18 and 21 was examined at P2Y1R only. The experiments were conducted by Prof. Gary A. Weisman from Columbia-Missouri University, Columbia, Mo., USA.

[1] = Stability in human blood serum, Method A; type: in vitro ADME; conditions: human blood serum and RPMI-1640, 37° C.
Method: (§3) Preparation of the Human Blood Serum: Blood Taken from Healthy Volunteers was obtained from a blood bank (Tel-Hashomer hospital, Israel), stored for 12 h at 4° C. and centrifuged in plastic tubes at 1500 g for 15 min at room temperature. The serum was separated and stored at −80° C.
The assay mixture, containing a 40 mM nucleotide derivative solution in deionized water (4.5 μl), human blood serum (180 μl) and RPMI-1640 (540 μl), was incubated at 37° C. for 1, 4, 8, 16, 24, 48, 72 and 96 h. The samples were then treated with 0.6 M of hydrochloric acid (430 μl), centrifuged for 2 min (13,000 g, 4° C.), neutralized by addition of 4 M of KOH, centrifuged for 2 min (13,000 g, 4° C.) and freeze-dried. The stability of the nucleotide was evaluated by HPLC for monitoring possible dephosphorylation products. The mixture was separated on a Gemini analytic column (5u C-18 110A, 150×4.60 mm) with gradient elution [0.01 M KH2PO4 pH=4.5 (A)/acetonitrile (B), 100:0→60:40, A:B, 20 min for 2, 3A and 3B; 100:0→95:5, A:B, 10 min for ATP] and flow rate of 1 ml/min. The hydrolysis rate was determined by measuring the change in the integration of the respective HPLC peaks with time.

[2] = cited from earlier work
[3] = Stability in human blood serum, Method B; type: in vitro ADME; conditions: human blood serum and RPMI-1640, 37° C.
Method: as §3
The assay mixture, containing a 40 mM nucleotide derivative solution in deionized water (4.5 μl), human blood serum (180 μl) and RPMI-1640 (540 μl), was incubated at 37° C. for 1, 4, 8, 16, 24, 48, 72, 96, 120 and 144 h. The samples were then heated to 80° C. for 30 min, treated with CM Sephadex (1-2 mg) for 2 h, centrifuged for 6 min (12,000 rpm) and extracted with chloroform (2×500 μl). The aqueous layer was freeze-dried. The stability of the nucleotide was evaluated by HPLC for monitoring possible dephosphorylation products. The mixture was separated on a Gemini analytic column (5u C-18 110A, 150×4.60 mm) with gradient elution [100 mM TEAA, pH 7 (A)/MeOH (B), 79:21, A:B, 15 min for 4A and 4B; 100 mM TEAA, pH 7 (A)/acetonitryl (B), A:B, 10 min, 100:0→90:10 A:B 10 min, 90:10→80:20 A:B 4 min, 80:20 A:B 1 min for ATP] and flow rate of 1 ml/min. The hydrolysis rate was determined by measuring the change in the integration of the respective HPLC peaks with time.

ecto-nucleotidases = conditions: muscle strips preparations, 60 min incubation; cited from earlier work
human P2Y2 = target: T2, human P2Y2 (Homo sapiens, UniProt P41231); experiment: Intracellular calcium measurement ([Ca2+]i, fura-2) in 1321N1 astrocytoma cells; type: cell-based; set-up: key to Compound-induced activation of [Ca2+], P2Y2, response class: sr = slight response at 100 μM; nr = no response
T2 construct: expressed in transfected cells
Method: as §1, §2

human P2Y4 = target: T3, human P2Y4 (Homo sapiens, UniProt P51582); experiment: as above; type: cell-based; set-up: key to Compound-induced activation of [Ca2+], P2Y4, response class: sr = slight response at 100 μM; nr = no response; conditions: 1321N1 cells expressing human P2Y4
T3 construct: expressed in transfected cells
Method: as §1, §2

rat P2Y6 = target: T4, rat P2Y6 (Rattus norvegicus, UniProt Q63371); experiment: as above; type: cell-based; set-up: key to Compound-induced activation of [Ca2+], P2Y6, response class: sr = slight response at 100 μM; nr = no response; conditions: for agonistic effect on P2Y6R: at 100 μM
T4 construct: expressed in transfected cells
Method: as §1, §2

[4] = pKa and degree of ionization of terminal phosphonate/phosphate; type: physicochemical; conditions: assay conditions, pH 7.4
[5] = target: T5, calf intestine alkaline phosphatase (Bos taurus, UniProt P19111); experiment: Enzymatic stability to alkaline phosphatase; type: in vitro ADME; conditions: 37° C., as in Example 6
T5 construct: purchased Fermentas Inc., Glen Burnie, Md
Method: Enzyme activity was measured by the release of p-nitrophenol from the nucleotide derivatives using a UV-vis spectrophotometer at 405 nm. Relative activity and resistance of nucleotides to enzymatic hydrolysis were determined at 37° C. Briefly, 32.5 μl of nucleotide derivative (77 μg/ml in 0.1 M Tris-HCl and 0.1 M MgCl2, pH 7.5) and 6 μl of deionized water were incubated with calf intestine alkaline phosphatase (Fermentas Inc., Glen Burnie, Md., 1 unit/μl, 6.25 μl at 37° C. final pH=9.8). After 30 min, the reaction was stopped by incubation at 80° C. for 30 min. The stability of the nucleotide derivative was evaluated by HPLC to monitor possible dephosphorylation products. The mixture was separated on a Gemini analytic column (5u C-18 110A, 150×4.60 mm) using gradient elution with Solvent System I (see Example 1) at 90:10 to 70:30 A:B for 3A and 3B, and 82:18 to 50:50 for 4A, 4B and 2 over 20 min and at a flow rate of 1 ml/min.

[6] = Stability in human blood serum (Example 10)
[7] = 1321N1 cells expressing human P2Y2
[8] = 1321N1 cells expressing rat P2Y6

T2 sequence (P41231 whole entry): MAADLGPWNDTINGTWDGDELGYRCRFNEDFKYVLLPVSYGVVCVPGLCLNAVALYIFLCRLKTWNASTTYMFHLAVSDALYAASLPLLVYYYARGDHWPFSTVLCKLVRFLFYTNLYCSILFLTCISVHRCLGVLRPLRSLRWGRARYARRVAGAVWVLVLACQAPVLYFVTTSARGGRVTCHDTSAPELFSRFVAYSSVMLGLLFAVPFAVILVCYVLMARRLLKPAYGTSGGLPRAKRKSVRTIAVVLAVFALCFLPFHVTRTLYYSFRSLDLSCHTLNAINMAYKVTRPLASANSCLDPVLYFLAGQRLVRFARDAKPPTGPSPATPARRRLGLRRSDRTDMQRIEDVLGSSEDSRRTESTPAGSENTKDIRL
T4 sequence (Q63371 whole entry): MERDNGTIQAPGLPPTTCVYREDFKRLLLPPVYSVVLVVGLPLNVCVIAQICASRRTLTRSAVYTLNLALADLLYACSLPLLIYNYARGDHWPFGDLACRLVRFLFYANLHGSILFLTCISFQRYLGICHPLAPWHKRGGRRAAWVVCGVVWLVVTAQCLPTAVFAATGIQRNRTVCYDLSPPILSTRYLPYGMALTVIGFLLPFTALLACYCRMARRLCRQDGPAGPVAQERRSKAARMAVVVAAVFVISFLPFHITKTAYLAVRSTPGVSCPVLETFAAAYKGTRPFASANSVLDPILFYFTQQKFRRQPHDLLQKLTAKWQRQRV
T1 sequence (P49652 whole entry): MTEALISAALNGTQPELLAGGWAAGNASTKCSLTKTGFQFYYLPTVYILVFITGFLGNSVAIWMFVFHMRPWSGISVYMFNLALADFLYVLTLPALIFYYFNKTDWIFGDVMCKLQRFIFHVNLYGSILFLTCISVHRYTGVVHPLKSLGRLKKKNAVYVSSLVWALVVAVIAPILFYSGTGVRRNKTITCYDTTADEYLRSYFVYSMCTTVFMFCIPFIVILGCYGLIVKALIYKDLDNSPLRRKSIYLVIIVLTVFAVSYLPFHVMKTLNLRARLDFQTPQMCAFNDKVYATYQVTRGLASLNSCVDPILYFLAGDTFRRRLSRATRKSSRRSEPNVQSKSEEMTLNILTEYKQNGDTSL
T3 sequence (P51582 whole entry): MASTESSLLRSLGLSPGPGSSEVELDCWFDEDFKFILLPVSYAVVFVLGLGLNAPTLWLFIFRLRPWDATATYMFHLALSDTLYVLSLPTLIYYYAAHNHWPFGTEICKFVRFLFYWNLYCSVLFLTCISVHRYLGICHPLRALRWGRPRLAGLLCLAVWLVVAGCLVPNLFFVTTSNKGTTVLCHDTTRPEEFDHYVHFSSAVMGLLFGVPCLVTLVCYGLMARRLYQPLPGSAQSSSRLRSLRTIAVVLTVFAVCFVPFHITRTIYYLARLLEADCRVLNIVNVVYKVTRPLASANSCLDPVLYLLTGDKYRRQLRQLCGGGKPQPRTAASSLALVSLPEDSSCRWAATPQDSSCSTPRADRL
T5 sequence (P19111 20-506): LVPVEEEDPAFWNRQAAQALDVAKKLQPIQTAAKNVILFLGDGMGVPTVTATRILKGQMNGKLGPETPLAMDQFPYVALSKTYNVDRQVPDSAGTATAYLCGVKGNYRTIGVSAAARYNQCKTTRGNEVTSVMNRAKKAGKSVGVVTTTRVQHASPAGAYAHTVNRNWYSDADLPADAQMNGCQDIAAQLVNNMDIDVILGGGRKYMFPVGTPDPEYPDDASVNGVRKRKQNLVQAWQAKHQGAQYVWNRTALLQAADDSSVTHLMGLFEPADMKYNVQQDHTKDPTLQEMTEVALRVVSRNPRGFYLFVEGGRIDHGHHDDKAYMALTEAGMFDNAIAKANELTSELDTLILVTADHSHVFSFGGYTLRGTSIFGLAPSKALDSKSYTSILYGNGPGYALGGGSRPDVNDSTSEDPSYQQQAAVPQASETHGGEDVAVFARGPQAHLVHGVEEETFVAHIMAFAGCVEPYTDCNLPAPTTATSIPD

2-MeS-ATP-α-B [Compound 1]
enhancement of insulin secretion as compared to basal secretion (perfused rat pancreas): 9 fold | EC50 (perfused rat pancreas; read-out: EC50 of insulin secretion): 28 nM

B[P@](=O)(OC[C@H]1O[C@@H](n2cnc3c(N)ncnc32)[C@H](O)[C@@H]1O)OP(=O)(O)CP(=O)(O)O (single isomer, unassigned) [Compound 3A, Adenosine-β,γ-CH2-5′-O-(1-boranotriphosphate)]
activity at P2Y1R, in words (turkey P2Y1): practically inactive | activities at the P2YRs tested (turkey P2Y1): insignificant activities | half-life in human blood serum [1]: 14.1 h

BP(=O)(OC[C@H]1O[C@@H](n2cnc3c(N)nc(SC)nc32)[C@H](O)[C@@H]1O)OP(=O)(O)C(Cl)(Cl)P(=O)(O)O (single isomer, unassigned) [Compound 21, 2MeS-adenosine-β,γ-CCl2-5′-O-(1-boranotriphosphate)]
pKa value of the terminal phosphonate [2]: about 6.7

BP(=O)(OC[C@H]1O[C@@H](n2cnc3c(N)nc(SC)nc32)[C@H](O)[C@@H]1O)OP(=O)(O)C(Cl)(Cl)P(=O)(O)O (single isomer, unassigned) [Compound 21A, 2MeS-adenosine-β,γ-CCl2-5′-O-(1-boranotriphosphate)]
EC50 (turkey P2Y1): 570 nM

BP(=O)(OC[C@H]1O[C@@H](n2cnc3c(N)nc(SC)nc32)[C@H](O)[C@@H]1O)OP(=O)(O)C(Cl)(Cl)P(=O)(O)O (single isomer, unassigned) [Compound 21B, 2MeS-adenosine-β,γ-CCl2-5′-O-(1-boranotriphosphate)]
EC50 (turkey P2Y1): 1200 nM

Nc1ncnc2c1ncn2[C@@H]1O[C@H](COP(=O)(O)OP(=O)(O)OP(=O)(O)O)[C@@H](O)[C@H]1O [ATP, reference compound]
half-life in human blood serum [1]: 3.6 h | half-life in human blood serum [3]: 7.7 h | degradation by ecto-nucleotidases (ecto-nucleotidases): completely dephosphorylated

CSc1nc(N)c2ncn(C3OC(COP(=O)(O)OP(=O)(O)CP(=O)(O)O)C(O)C3O)c2n1 (stereo not drawn) [Compound 2, β,γ-CH2-2MeS-adenosine-5′-triphosphate]
EC50 (turkey P2Y1): 80 nM | activity at P2Y2R, in words (human P2Y2): inactivity | Compound-induced activation of [Ca2+], P2Y2, response class (human P2Y2; [7]): nr | Compound-induced activation of [Ca2+], P2Y4, response class (human P2Y4): nr | Compound-induced activation of [Ca2+], P2Y6, response class (rat P2Y6; [8]): sr | agonistic effect on P2Y6R (rat P2Y6): slight agonistic effect | half-life in human blood serum [1]: 12.7 h | fraction ionized [4]: 9% | degradation by ecto-nucleotidases (ecto-nucleotidases): no degradation

CSc1nc(N)c2ncn([C@@H]3O[C@H](COP(=O)(O)OP(=O)(O)O)[C@@H](O)[C@H]3O)c2n1 [Compound 2-MeS-ADP, 2-MeS-ADP, reference compound]
fraction ionized [4]: 91%

B[P@](=O)(OC[C@H]1O[C@@H](n2cnc3c(N)nc(SC)nc32)[C@H](O)[C@@H]1O)OP(=O)(O)CP(=O)(O)O [Compound 4A, 2MeS-adenosine-β,γ-CH2-5′-O-(1-boranotriphosphate)]
activities at the P2YRs tested (turkey P2Y1): insignificant activities | activity at P2Y2R, in words (human P2Y2): inactivity

B[P@](=O)(OC[C@H]1O[C@@H](n2cnc3c(N)nc(SC)nc32)[C@H](O)[C@@H]1O)OP(=O)(O)CP(=O)(O)O [Compound 4B, 2MeS-adenosine-β,γ-CH2-5′-O-(1-boranotriphosphate)]
EC50 (turkey P2Y1): 17200 nM | Compound-induced activation of [Ca2+], P2Y2, response class (human P2Y2; [7]): nr | Compound-induced activation of [Ca2+], P2Y4, response class (human P2Y4): nr | Compound-induced activation of [Ca2+], P2Y6, response class (rat P2Y6; [8]): sr | agonistic effect on P2Y6R (rat P2Y6): slight agonistic effect | half-life in human blood serum [3]: 71.9 h

CSc1nc(N)c2ncn([C@@H]3O[C@H](COP(=O)(O)C(Cl)(Cl)P(=O)(O)O)[C@@H](O)[C@H]3O)c2n1 [Compound 17, 2-MeS-adenosine-5′-dichloromethylene-diphosphate]
EC50 (turkey P2Y1): 3100 nM | pKa value of the terminal phosphonate [2]: about 6.7

CSc1nc(N)c2ncn([C@@H]3O[C@H](COP(=O)(O)C(F)(F)P(=O)(O)O)[C@@H](O)[C@H]3O)c2n1 [Compound 18, 2-MeS-adenosine-5′-difluoromethylene-diphosphate]
EC50 (turkey P2Y1): 980 nM | pKa value of the terminal phosphonate [2]: about 6.7

[BH3-]P(=O)(OC[C@H]1O[C@@H](n2cnc3c(N)nc(SC)nc32)[C@H](O)[C@@H]1O)OP(=O)([O-])[O-].[Na+].[Na+].[Na+] (some centres unmarked) [Compound 19A, 2MeS-adenosine-5′-O-(Pα-borano) diphosphate]
EC50 (turkey P2Y1): 38 nM | Compound-induced activation of [Ca2+], P2Y2, response class (human P2Y2; [7]): nr | Compound-induced activation of [Ca2+], P2Y4, response class (human P2Y4): nr | Compound-induced activation of [Ca2+], P2Y6, response class (rat P2Y6; [8]): nr | t1/2 to alkaline phosphatase [5]: about 6 h | half-life in human blood serum ([6]; Example 10): > 24 h | percentage of the compound hydrolyzed ([6]; human blood serum, after 24 h): 25-40%

O=c1ccn([C@@H]2O[C@H](COP(=O)(O)OP(=O)(O)O)[C@@H](O)[C@H]2O)c(=O)[nH]1 [UDP, reference compound]
EC50 (rat P2Y6; 1321N1 cells expressing rat P2Y6, read-out: Compound-induced activation of [Ca2+] EC50, P2Y6): 200 ± 60 nM

O=c1ccn([C@@H]2O[C@H](COP(=O)(O)OP(=O)(O)OP(=O)(O)O)[C@@H](O)[C@H]2O)c(=O)[nH]1 [UTP, reference compound]
EC50 (human P2Y2; 1321N1 cells expressing human P2Y2, read-out: Compound-induced activation of [Ca2+] EC50, P2Y2): 640 ± 250 nM | EC50 (human P2Y4; read-out: Compound-induced activation of [Ca2+] EC50, P2Y4): 480 ± 310 nM

Nc1ncnc2c1ncn2[C@@H]1O[C@H](COP(=O)(O)OP(=O)(O)CP(=O)(O)O)[C@@H](O)[C@H]1O [β,γ-CH2-ATP]
degradation by ecto-nucleotidases (ecto-nucleotidases): no degradation
